These results are taken from patent US7192948B2, “Bicyclic heterocycles as HIV integrase inhibitors” (priority 2004, dated 2007).

One data set has as its target T1, HIV-integrase (Human immunodeficiency virus type 1 group M subtype B, UniProt P12497).
T1 construct: Recombinant integrase (0.26 ng) was incubated with the beads
Put plainly: HIV-Integrase Inhibition Activity (SPA bead strand transfer assay). It counts as biochemical. To be noted: recombinant integrase, in vitro. How it is done:
HIV-Integrase Inhibition Activity. To evaluate in-vitro activity against HIV-integrase, 5 pmole of biotin labeled substrate DNA was bound to 100 μg of Streptavidin coated PVT SPA beads (Amersham Pharmacia Biotech). Recombinant integrase (0.26 ng) was incubated with the beads for 90 min at 37° C. Unbound enzyme was removed by washing the complex followed by addition of inhibitors and 0.1 fmol of P33 labeled target DNA. The reaction was stopped by adding EDTA to a final concentration of […]. Samples were counted in TopCountNXT (Packard) and the CPM was used as a measure of integration. The reaction condition was as described in A. Engelman and R. Craigie, J. Virol. 69, 5908–5911 (1995). The sequences of substrate and target DNA were described in Nucleic Acid Research 22, 1121–1122 (1994).

For `O=C1CCn2c(nc(C(=O)NCc3ccc(F)cc3)c(O)c2=O)N1` [Example 6, 3-Hydroxy-4,8-dioxo-6,7,8,9-tetrahydro-4H-pyrimido[1,2-a]pyrimidine-2-carboxylic acid 4-fluoro-benzylamide], the melting point was > 300 °C (dec.). Also, the IC50 on HIV-integrase lay within 16 to 49000 nM.

In the case of `Cc1cc(CNC(=O)c2nc3n(c(=O)c2O)CCC(=O)N3)ccc1F` [Example 8, 3-Hydroxy-4,8-dioxo-6,7,8,9-tetrahydro-4H-pyrimido[1,2-a]pyrimidine-2-carboxylic acid 4-fluoro-3-methyl-benzylamide], the melting point was > 300 °C. For the same molecule, the IC50 on HIV-integrase was in the range of 4 to 15 nM. `CN1C(=O)CCn2c1nc(C(=O)NCc1ccc(Cl)c(Cl)c1)c(O)c2=O` [Example 19, N-(3,4-Dichlorobenzyl)-3-hydroxy-9-methyl-4,8-dioxo-6,7,8,9-tetrahydro-4H-pyrimido[1,2-a]pyrimidine-2-carboxamide] registered a melting point of 198 to 201 °C. For the same molecule, the IC50 at HIV-integrase was 4 to 15 nM. The matching figures for `Cc1ccc(CNC(=O)c2nc3n(c(=O)c2O)CC(=O)N3)cc1C` [Example 5, 6-Hydroxy-2,5-dioxo-1,2,3,5-tetrahydro-imidazo[1,2-a]pyrimidine-7-carboxylic acid 3,4-dimethyl-benzylamide]: 287 °C (dec.) and 16 to 49000 nM.

Molecule `Cc1cc(CNC(=O)c2nc3n(c(=O)c2O)CCC(=O)N3C)ccc1F` [Example 20, N-(4-Fluoro-3-methylbenzyl)-3-hydroxy-9-methyl-4,8-dioxo-6,7,8,9-tetrahydro-4H-pyrimido[1,2-a]pyrimidine-2-carboxamide] had a melting point of 216 °C. Besides, the IC50 on HIV-integrase was in the range of 4 to 15 nM.

With `Cc1cc(CNC(=O)c2nc3n(c(=O)c2O)CC(=O)N3C)ccc1F` [Example 11, N-(4-Fluoro-3-methylbenzyl)-6-hydroxy-1-methyl-2,5-dioxo-1,2,3,5-tetrahydroimidazo[1,2-a]pyrimidine-7-carboxamide], at HIV-integrase, the IC50 was in the range of 4 to 15 nM. For `CN1C(=O)CCn2c1nc(C(=O)NCc1ccc(F)cc1)c(O)c2=O` [Example 18, N-(4-Fluorobenzyl)-3-hydroxy-9-methyl-4,8-dioxo-6,7,8,9-tetrahydro-4H-pyrimido[1,2-a]pyrimidine-2-carboxamide], the melting point lay in the range of 176 to 178 °C. For the same molecule, at HIV-integrase, the IC50 lay in the range of 16 to 49000 nM. On to `Cc1cc(CNC(=O)c2nc3n(c(=O)c2O)CC(=O)N3)ccc1F` [Example 3, 6-Hydroxy-2,5-dioxo-1,2,3,5-tetrahydro-imidazo[1,2-a]pyrimidine-7-carboxylic acid 4-fluoro-3-methyl-benzylamide], for which the melting point is 287 °C (dec.). Also, the IC50 on HIV-integrase lay in the range of 16 to 49000 nM.

In the case of `O=C1CCn2c(nc(C(=O)NCc3ccc(Cl)c(Cl)c3)c(O)c2=O)N1` [Example 7, 3-Hydroxy-4,8-dioxo-6,7,8,9-tetrahydro-4H-pyrimido[1,2-a]pyrimidine-2-carboxylic acid 3,4-dichloro-benzylamide], the melting point is > 300 °C (dec.). The IC50 on HIV-integrase was 4 to 15 nM.

Turning to `Cc1ccc(CNC(=O)c2nc3n(c(=O)c2O)CC(=O)N3C)cc1C` [Example 13, N-(3,4-Dimethylbenzyl)-6-hydroxy-1-methyl-2,5-dioxo-1,2,3,5-tetrahydroimidazo[1,2-a]pyrimidine-7-carboxamide], the IC50 at HIV-integrase lay within 16 to 49000 nM. Turning to `O=C1Cn2c(nc(C(=O)NCc3ccc(Cl)c(Cl)c3)c(O)c2=O)N1` [Example 2, 6-Hydroxy-2,5-dioxo-1,2,3,5-tetrahydro-imidazo[1,2-a]pyrimidine-7-carboxylic acid 3,4-dichloro-benzylamide], the melting point was 280 °C (dec.). Further, the IC50 at HIV-integrase was 4 to 15 nM.

Molecule `Cc1ccc(CNC(=O)c2nc3n(c(=O)c2O)CCC(=O)N3C)cc1C` [Example 22, N-(3,4-Dimethylbenzyl)-3-hydroxy-9-methyl-4,8-dioxo-6,7,8,9-tetrahydro-4H-pyrimido[1,2-a]pyrimidine-2-carboxamide] had a melting point of 181 °C. Besides, the IC50 at HIV-integrase was 16 to 49000 nM. Regarding `CNC(=O)c1cc(F)ccc1CNC(=O)c1nc2n(c(=O)c1O)CC(=O)N2Cc1ccccc1` [Example 16, N-(4-Fluoro-2-(methylcarbamoyl)benzyl)-1-benzyl-6-hydroxy-2,5-dioxo-1,2,3,5-tetrahydroimidazo[1,2-a]pyrimidine-7-carboxamide], on HIV-integrase, the 50% inhibitory concentration (IC50) is 16 to 49000 nM. The same measure, in the same setting: next, `O=C(NCc1ccc(F)cc1)c1nc2n(c(=O)c1O)CCS(=O)(=O)N2` [Example 24, 7-Hydroxy-2,2,6-trioxo-1,3,4,6-tetrahydro-2H-2λ^6-pyrimido[2,1-c][1,2,4]thiadiazine-8-carboxylic acid 4-fluoro-benzylamide]: ≥ 50 nM; `O=C(NCc1ccc(Cl)c(Cl)c1)c1nc2n(c(=O)c1O)CCS2` [Example 38, N-(3,4-Dichlorobenzyl)-6-hydroxy-5-oxo-3,5-dihydro-2H-thiazolo[3,2-a]pyrimidine-7-carboxamide]: 4 to 15 nM. Regarding `O=C1Cn2c(nc(C(=O)NCc3ccc(F)c(Cl)c3)c(O)c2=O)N1` [Example 4, 6-Hydroxy-2,5-dioxo-1,2,3,5-tetrahydro-imidazo[1,2-a]pyrimidine-7-carboxylic acid 3-chloro-4-fluoro-benzylamide], the melting point is 295 °C (dec.). At HIV-integrase, the IC50 lay within 16 to 49000 nM. For the molecule `CNC(=O)c1cc(F)ccc1CNC(=O)c1nc2n(c(=O)c1O)CC(=O)N2C` [Example 17, N-{4-Fluoro-2-(methylcarbamoyl)benzyl}-6-hydroxy-1-methyl-2,5-dioxo-1,2,3,5-tetrahydroimidazo[1,2-a]pyrimidine-7-carboxamide], the IC50 on HIV-integrase is ≥ 50 nM. On the same count and under the same terms, next, `O=C(NCc1ccc(F)cc1)c1nc2n(c(=O)c1O)CC(=O)N2Cc1ccccc1` [Example 14, N-(4-Fluorobenzyl)-1-benzyl-6-hydroxy-2,5-dioxo-1,2,3,5-tetrahydroimidazo[1,2-a]pyrimidine-7-carboxamide]: 16 to 49000 nM; `CN1Cc2nc(C(=O)NCc3ccc(F)cc3)c(O)c(=O)n2CC1=O` [Example 44, N-(4-Fluorobenzyl)-3-hydroxy-8-methyl-4,7-dioxo-6,7,8,9-tetrahydro-4H-pyrazino[1,2-a]pyrimidine-2-carboxamide]: ≥ 50 nM. The same measure, in the same setting: the result for `CNC(=O)c1cc(F)ccc1CNC(=O)c1nc2n(c(=O)c1O)CCS2` [Example 40, N-(4-Fluoro-2-(methylcarbamoyl)benzyl)-6-hydroxy-5-oxo-3,5-dihydro-2H-thiazolo[3,2-a]pyrimidine-7-carboxamide] reads 16 to 49000 nM; that for `CN1Nc2nc(C(=O)NCc3ccc(F)cc3)c(O)c(=O)n2CC1=O` [Example 29, N-(4-Fluorobenzyl)-7-hydroxy-2-methyl-3,6-dioxo-2,3,4,6-tetrahydro-1H-pyrimido[2,1-c][1,2,4]triazine-8-carboxamide], ≥ 50 nM. Take `CN1C(=O)CCn2c1nc(C(=O)NCc1ccc(F)c(Cl)c1)c(O)c2=O` [Example 21, N-(3-Chloro-4-fluorobenzyl)-3-hydroxy-9-methyl-4,8-dioxo-6,7,8,9-tetrahydro-4H-pyrimido[1,2-a]pyrimidine-2-carboxamide]: the melting point came to 201 °C. Moreover, the IC50 on HIV-integrase lay in the range of 4 to 15 nM.

As usually defined, the IC50 is the concentration that gives 50% inhibition. What is called melting point is the temperature, or range, at which the solid turns liquid.
